Calls of active or inactive are those of the source. No cut-off for these calls is given here.
Assays:
[1] = target: T1, Beta-secretase 1 (Homo sapiens, UniProt P56817); assay: Inhibition of BACE1 by HPLC method
[2] = test system: Rattus norvegicus; assay: Antialzheimer activity in CD-IGS rat assessed as reduction in brain amyloid beta level at 30 mg/kg, ip measured after 5 hrs relative to control; format: functional; parameters: scale not given: the % may be the effect or the level left; details: route intraperitoneal
[3] = Plasma concentration in CD-IGS rat at 30 mg/kg, ip measured after 5 hrs; format: ADME, organism-based; parameters: dose 30 mg/kg, route intraperitoneal
[4] = Fraction unbound in plasma of CD-IGS rat at 30 mg/kg, ip measured after 5 hrs; format: ADME, organism-based; parameters: dose 30 mg/kg, route intraperitoneal
[5] = Ratio drug level in brain to plasma of CD-IGS rat at 30 mg/kg, ip measured after 5 hrs; format: ADME, organism-based; parameters: dose 30 mg/kg, route intraperitoneal; details: read-out: BPR
[6] = test system: Rattus norvegicus; assay: Antialzheimer activity in CD-IGS rat assessed as reduction in plasma amyloid beta level at 30 mg/kg, ip measured after 5 hrs relative to control; format: functional; parameters: scale not given: the % may be the effect or the level left; details: route intraperitoneal
[7] = target: T1, Beta-secretase 1; assay: Inhibition of BACE1 in human HEK293 cells expressing swedish mutant APP; format: cell-based
[8] = Selectivity for BACE1 over pepsin
[9] = Selectivity for BACE1 over cathepsin E
[10] = Drug level in brain of transgenic 2576 mouse at 30 mg/kg, sc measured after 5 hrs; format: ADME, organism-based; parameters: dose 30 mg/kg, route subcutaneous; details: read-out: Drug uptake
[11] = Selectivity for BACE1 over cathepsin D
[12] = test system: Mus musculus; assay: Antialzheimer activity in transgenic 2576 mouse assessed as reduction in brain amyloid beta level at 30 mg/kg, sc measured after 5 hrs relative to control; format: functional, organism-based; parameters: dose 30 mg/kg
[13] = test system: Mus musculus; assay: Antialzheimer activity in transgenic 2576 mouse assessed as reduction in plasma amyloid beta level at 30 mg/kg, sc measured after 5 hrs relative to control; format: functional; parameters: scale not given: the % may be the effect or the level left; details: route subcutaneous
[14] = Ratio drug level in brain to plasma of transgenic 2576 mouse at 30 mg/kg, sc measured after 5 hrs; format: ADME, organism-based; parameters: dose 30 mg/kg, route subcutaneous; details: read-out: BPR
[15] = Drug level in plasma of transgenic 2576 mouse at 30 mg/kg, sc measured after 5 hrs; format: ADME, organism-based; parameters: dose 30 mg/kg, route subcutaneous
[16] = Fraction unbound in plasma of transgenic 2576 mouse at 30 mg/kg, sc measured after 5 hrs; format: ADME, organism-based; parameters: dose 30 mg/kg, route subcutaneous

T1 sequence (P56817 whole entry): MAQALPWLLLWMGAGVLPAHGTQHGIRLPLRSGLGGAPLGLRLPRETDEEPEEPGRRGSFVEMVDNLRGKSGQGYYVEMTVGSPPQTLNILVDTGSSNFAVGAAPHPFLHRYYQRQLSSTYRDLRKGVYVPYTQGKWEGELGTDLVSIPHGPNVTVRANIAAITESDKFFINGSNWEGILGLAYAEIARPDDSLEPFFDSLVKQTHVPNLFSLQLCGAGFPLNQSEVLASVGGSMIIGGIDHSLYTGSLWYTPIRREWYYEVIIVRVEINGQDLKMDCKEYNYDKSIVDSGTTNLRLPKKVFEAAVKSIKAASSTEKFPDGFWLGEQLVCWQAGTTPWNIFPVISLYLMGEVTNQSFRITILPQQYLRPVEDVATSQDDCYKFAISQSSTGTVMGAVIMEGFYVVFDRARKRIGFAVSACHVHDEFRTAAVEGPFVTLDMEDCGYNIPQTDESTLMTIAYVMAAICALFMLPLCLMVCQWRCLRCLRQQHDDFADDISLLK

| SMILES | IC50 [1] | Activity [2] | concentration at 5 h [3] | fraction unbound at 5 h [4] | Kp at 5 h [5] | Activity [6] | IC50 [7] | Selectivity ratio [8] | Selectivity ratio [9] | concentration at 5 h [10] | Selectivity ratio [11] | Activity [12] | Activity [13] | Kp at 5 h [14] | concentration at 5 h [15] | fraction unbound at 5 h [16] |
| --- | --- | --- | --- | --- | --- | --- | --- | --- | --- | --- | --- | --- | --- | --- | --- | --- |
| CCCC[C@H]1CCN([C@@H](C)C(=O)N[C@@H](Cc2cc(F)cc(F)c2)[C@H](O)CNCc2cccc(OC)c2)C1=O | 60 nM | 112% | 1600 nM | 0.029 | 0.18 | 26% | 81 nM | – | – | – | – | – | – | – | – | – |
| CCCC[C@H]1CCN([C@@H](CCc2ccccc2)C(=O)N[C@@H](Cc2cc(F)cc(F)c2)[C@H](O)[C@H]2C[C@@H](OCCC)CN2)C1=O | 19 nM | 114% | 4000 nM | – | 0.02 | 23% | 84 nM | – | – | – | – | – | – | – | – | – |
| CCC(C)[C@@]1(NC(C)=O)CCN([C@@H](CCc2ccccc2)C(=O)N[C@@H](Cc2cc(F)cc(F)c2)[C@H](O)[C@H]2C[C@H](O)CN2)C1=O (some centres undefined) | 0.89 nM | – | – | – | – | – | 11 nM | 3400 | 3400 | 680 nM | 3400 | inactive | 66% | 0.87 | 780 nM | 0.1 |

Source: ChEMBL document CHEMBL1914313, “Monosubstituted γ-lactam and conformationally constrained 1,3-diaminopropan-2-ol transition-state isostere inhibitors of β-secretase (BACE)” (Bioorg Med Chem Lett, 2011)
